# Values joined by “and” are separate entries in the source; they are usually repeats but may differ in a detail not shown here. Equal entries are not always repeated. Where two headings read alike, the source gives them in different places.
# Key:
# [1] = Percent encapsulation (percent yield) of drug in final MVL suspension; assay type: physicochemical
# [2] = Drug loading of multivesicular liposomes (MVL): drug concentration of suspension relative to lipocrit; assay type: physicochemical
# [3] = cited from earlier work
# [4] = Solubility of IGF-I versus pH; assay type: physicochemical
# Experimental: Further studies were conducted using in the first aqueous component concentrations of IGF-I ranging from 10 to 80 mg/mL, either with or without 100 mM HCl or 25 mM citric acid at constant pH. […] Studies have shown that up to about 300 mg/mL of IGF-I is soluble at a pH below 5.
# [5] = Integrity of encapsulated IGF-I by SDS-PAGE and RP-HPLC / characterization of encapsulated protein; assay type: physicochemical
# From the text: (§1) The physicochemical integrity of the encapsulated IGF-I was confirmed by SDS-PAGE assay using Novex NuPage gel as well as by RP-HPLC assay using a C18 symmetric column. The encapsulated protein was extracted using 75:25 IPA:2N Citric Acid. The bioactivity of the encapsulated IGF-I was confirmed by a mitogenic bioassay using MG-63 human osteosarcoma cell line and 3-(4,5-dimethylthiazol-2-yl)-2,5-diphenyltetrazolium bromide (MTT) stain according to the method of W. Lopaczynski et al., Regulatory Peptides, 48:207-216, 1993. The MG-63 cells were obtained from the American Type Culture Collection (ATCC# CRL 1427), and the dose dependent mitogenic response of quiescent MG-63 cells to added IGF-I was determined.
# [6] = tested on: MG-63 human osteosarcoma cell line; assay: Mitogenic bioassay of extracted IGF-I with MTT stain; assay type: cell-based; details: mitogenic response of quiescent MG-63 cells, versus unencapsulated standard
# From the text: as §1
# [7] = Percent free drug in MVL suspension; details: 125 mL scale, first aqueous: 15 mg/mL, 8.0 w/v % sucrose, 20 mM ammonium citrate, ~321 mOsm
# Experimental: As used herein, "percent free drug" means the ratio of the amount of drug exterior to the liposomes in the final liposome suspension to the total amount of drug in the final suspension (the final product) multiplied by 100. [formula]
# 125 mL of first aqueous solution was mixed with 125 mL of the lipid component using a high-shear double-mixing vessel system to obtain the first emulsion. […] The aqueous and organic components were mixed at a speed of 8000 rpm for 30 minutes in the first emulsion vessel. […]
# Percent free drug was calculated as the percent ratio of the amount of drug in the supernatant to the amount of drug in the final suspension. Percent free drug can also be calculated as the percent ratio of the drug concentration in the supernatant to that in the suspension, times (1-lipocrit) Drug loading, which measures the amount of drug encapsulated in each unit of the encapsulated volume, is approximately equal to and can be estimated (assuming low percent free drug) as the ratio of the drug concentration of the final liposome suspension to the lipocrit. […]
# Using a reference absorbance standard established based on drug solutions of known concentration in the same dissolving solution, the concentrations of drug in the suspension and supernatant were calculated.
# [8] = Lipocrit of MVL suspension; assay type: physicochemical; details: 125 mL scale, first aqueous: 15 mg/mL, 20 mM ammonium citrate
# Experimental: As used herein, "lipocrit," which is defined in analogy to hematocrit, means the ratio of the volume occupied by the liposomes to the total suspension volume multiplied by 100. [formula]
# Thus, percent yield of drug was calculated as the ratio of the drug concentration in the final suspension times the volume of the final suspension to the drug concentration in the first aqueous solution times the volume of the first aqueous solution. Lipocrit was calculated, in analogy to hematocrit, as the percent ratio of the pellet volume to the suspension volume (see conditions below for obtaining the pellet volume).
# To calculate the lipocrit about 50 μL of the multivesicular liposome suspension was taken up into a capillary tube, and end of the tube was sealed while ensuring that the suspension contained no air bubbles. The suspension was spun in a centrifuge at 600×g for 10 minutes to obtain a pellet layer and a supernatant layer. The percent ratio of the length of the tube occupied by the pellet to that occupied by the suspension gives the lipocrit.
# [9] = prior-art multivesicular liposomes; cited from earlier work
# [10] = prior-art multivesicular liposomes; cited from earlier work; remark: listed apart in the source
molecule,measurement,setting,value
"CC(C)C[C@H](NC(=O)[C@H](Cc1ccccc1)NC(=O)CNC(=O)CNC(=O)[C@@H](N)Cc1ccc(O)cc1)C(=O)O [Enkephalin, reference compound]",% Yield,[1],77.5% and 71.8% and 72.5%
same,effect of osmolarity of first aqueous solution on percent yield,[1],not significantly changed by a decrease in osmolarity
same,effect of osmolarity of first aqueous solution on drug loading,[2],decreasing of osmolarity resulting in increased drug loading
same,Drug Loading,"[2]; first aqueous: 5 mg/mL, 0.0 w/v % sucrose, 25 mM citric acid, est. 35.5 mOsm",50.8 mg/mL
same,Drug Loading,"[2]; first aqueous: 5 mg/mL, 2.5 w/v % sucrose, 25 mM citric acid, est. 111.5 mOsm",13.4 mg/mL
same,Drug Loading,"[2]; first aqueous: 5 mg/mL, 5.0 w/v % sucrose, 25 mM citric acid, est. 191.5 mOsm",6.4 mg/mL
"CCNC(=O)[C@@H]1CCCN1C(=O)[C@H](CCCNC(=N)N)NC(=O)[C@H](CC(C)C)NC(=O)[C@@H](CC(C)C)NC(=O)[C@H](Cc1ccc(O)cc1)NC(=O)[C@H](CO)NC(=O)[C@H](Cc1c[nH]c2ccccc12)NC(=O)[C@H](Cc1c[nH]cn1)NC(=O)[C@@H]1CCC(=O)N1 [Leuprolide, reference compound]",effect of osmolarity of first aqueous solution on percent yield,[1]; MVL,A similar percent yield was maintained across the range of osmolarities tested
same,% Yield,"[1]; MVL, first aqueous: 15 mg/mL, 4.0 w/v % sucrose, 100 mM phosphoric acid, est. 261.6 mOsm",54.1%
same,% Yield,"[1]; MVL, first aqueous: 15 mg/mL, 6.0 w/v % sucrose, 100 mM phosphoric acid, est. 328.6 mOsm",56.2%
same,effect of osmolarity of first aqueous solution on drug loading,[2],decreasing of osmolarity resulting in increased drug loading
same,Drug Loading,"[2]; first aqueous: 15 mg/mL, 4.0 w/v % sucrose, 100 mM phosphoric acid, est. 261.6 mOsm",17.9 mg/mL
same,Drug Loading,"[2]; first aqueous: 15 mg/mL, 6.0 w/v % sucrose, 100 mM phosphoric acid, est. 328.6 mOsm",10.9 mg/mL
OC[C@H]1O[C@@](CO)(O[C@H]2O[C@H](CO)[C@@H](O)[C@H](O)[C@H]2O)[C@@H](O)[C@@H]1O [sucrose],Osmolarity for sucrose,[3]; 0.5 w/v %,15 mOsm
same,Osmolarity for sucrose,[3]; 1.0 w/v %,30 mOsm
same,Osmolarity for sucrose,[3]; 1.5 w/v %,45 mOsm
same,Osmolarity for sucrose,[3]; 2.0 w/v %,60 mOsm
same,Osmolarity for sucrose,[3]; 2.5 w/v %,76 mOsm
same,Osmolarity for sucrose,[3]; 3.0 w/v %,91 mOsm
same,Osmolarity for sucrose,[3]; 4.0 w/v %,123 mOsm
same,Osmolarity for sucrose,[3]; 5.0 w/v %,156 mOsm
same,Osmolarity for sucrose,[3]; 6.0 w/v %,190 mOsm
same,Osmolarity for sucrose,[3]; 7.0 w/v %,225 mOsm
same,Osmolarity for sucrose,[3]; 8.0 w/v %,261 mOsm
"IGF-I: insulin-like growth factor I (IGF-I), encapsulated in MVLs",solubility and bioavailability of encapsulated IGF-I versus pH,"[4]; 10 to 80 mg/mL IGF-I, with or without 100 mM HCl or 25 mM citric acid",varied according to pH of the first aqueous component
same,solubility,[4]; pH below 5,about 300 mg/mL
same,physicochemical integrity of encapsulated IGF-I,"[5]; SDS-PAGE and RP-HPLC, extracted with 75:25 IPA:2N citric acid",confirmed
same,degradation of encapsulated protein,[5]; Table 6A formulations (100 mM HCl),showed some degradation
same,presence of IGF-I oligomers,"[5]; absence of an acid buffer, Table 6B",increased presence of IGF-I oligomers in the absence of an acid buffer
same,bioactivity of extracted IGF-I,[6],approximately equivalent to that of an unencapsulated standard
same,% Free IGF-I,[7],0.18%
same,% Lipocrit,"[8]; 5.0 w/v % sucrose, ~216 mOsm",36.7%
same,% Lipocrit,"[8]; 8.0 w/v % sucrose, ~321 mOsm",41.8%
cytosine arabinoside [Cytarabine],% Yield,[1],57.1% and 62.6% and 77.3% and 69.6%
same,effect of osmolarity of first aqueous solution on percent yield,[1],remaining relatively constant
same,Drug Loading,"[2]; first aqueous: 40 mg/mL, 0.0 w/v % sucrose, 20 mM citric acid, est. 185.9 mOsm",61.7 mg/mL
same,Drug Loading,"[2]; first aqueous: 40 mg/mL, 2.0 w/v % sucrose, 20 mM citric acid, est. 245.9 mOsm",45.2 mg/mL
same,Drug Loading,"[2]; first aqueous: 40 mg/mL, 5.0 w/v % sucrose, 20 mM citric acid, est. 341.9 mOsm",30.8 mg/mL
same,Drug Loading,"[2]; first aqueous: 40 mg/mL, 8.0 w/v % sucrose, 20 mM citric acid, est. 446.9 mOsm",21.0 mg/mL
same,encapsulation efficiency,[9],relatively low
same,release rate of encapsulated molecules in biological fluids,[10],faster than is therapeutically desirable

# Source: patent US6106858A, “Modulation of drug loading in multivescular liposomes” (SkyePharma, Inc., priority 1997, dated 2000)
